Several values for one entry are separate records, joined by “and”; a condition that tells them apart may be missing. Equal entries are not always repeated. Inconclusive results and toxic doses are left out.
Test system: P388 leukemia ip, CD2F1 mice, survival T/C
Assay: NCI In Vivo Anticancer Drug Screen. Data for tumor model P388 Leukemia (intraperitoneal) in CD2F1 (CDF1) mice
Settings: endpoint: median survival time, higher = longer survival
How it was run: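 Mice carrying the transplanted tumor received test compound or vehicle. Survival was recorded in each group, and the value is the treated-group measurement divided by that of the vehicle-treated control group.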

[1] = dose: 100.0 mg/kg/injection, schedule: Q01DX009 (ip), vehicle: saline with Tween-80
[2] = dose: 60.0 mg/kg/injection, schedule: Q01DX005 (ip), vehicle: saline with Tween-80
[3] = dose: 120.0 mg/kg/injection, schedule: Q01DX005 (ip), vehicle: saline with Tween-80
[4] = dose: 6.25 mg/kg/injection, schedule: Q01DX005 (ip), vehicle: saline with Tween-80
[5] = dose: 12.5 mg/kg/injection, schedule: Q01DX005 (ip), vehicle: saline with Tween-80
[6] = dose: 25.0 mg/kg/injection, schedule: Q01DX005 (ip), vehicle: saline with Tween-80
[7] = dose: 200.0 mg/kg/injection, schedule: Q01DX005 (ip), vehicle: saline with Tween-80
[8] = dose: 240.0 mg/kg/injection, schedule: Q01DX005 (ip), vehicle: saline with Tween-80
[9] = dose: 60.0 mg/kg/injection, schedule: Q01DX005 (ip), vehicle: Klucel (hydroxypropylcellulose) (HPC)
[10] = dose: 120.0 mg/kg/injection, schedule: Q01DX005 (ip), vehicle: Klucel (hydroxypropylcellulose) (HPC)
[11] = dose: 25.0 mg/kg/injection, schedule: Q01DX009 (ip), vehicle: saline with Tween-80
[12] = dose: 50.0 mg/kg/injection, schedule: Q01DX009 (ip), vehicle: saline with Tween-80
[13] = dose: 200.0 mg/kg/injection, schedule: Q01DX009 (ip), vehicle: saline with Tween-80
[14] = dose: 50.0 mg/kg/injection, schedule: Q01DX005 (ip), vehicle: Klucel (hydroxypropylcellulose) (HPC)
[15] = dose: 100.0 mg/kg/injection, schedule: Q01DX005 (ip), vehicle: Klucel (hydroxypropylcellulose) (HPC)
[16] = dose: 6.25 mg/kg/injection, schedule: Q01DX009 (ip), vehicle: saline with Tween-80
[17] = dose: 12.5 mg/kg/injection, schedule: Q01DX009 (ip), vehicle: saline with Tween-80
[18] = dose: 50.0 mg/kg/injection, schedule: Q01DX005 (ip), vehicle: saline with Tween-80
[19] = dose: 200.0 mg/kg/injection, schedule: Q04DX003 (ip), vehicle: saline
[20] = dose: 400.0 mg/kg/injection, schedule: Q04DX003 (ip), vehicle: saline
[21] = dose: 100.0 mg/kg/injection, schedule: Q01DX005 (ip), vehicle: saline with Tween-80

## O=c1cc(-c2ccccc2)[nH]c2c1CCCC2
[1]
  T/C: 116 % of control
dose: 400.0 mg/kg/injection, schedule: Q01DX009 (ip), vehicle: saline with Tween-80
  T/C: 176 % of control and 186 % of control

## CN(C)CCCSc1c2ccccc2nc2cccc([N+](=O)[O-])c12
[2]
  T/C: 94 % of control
[3]
  T/C: 106 % of control

## O=C(CCN1C(=O)c2ccccc2C1=O)C(O)CCN1C(=O)c2ccccc2C1=O (stereo not given)
[4]
  T/C: 98 % of control
[5]
  T/C: 107 % of control
[6]
  T/C: 100 % of control
[7]
  T/C: 87 % of control

## O=[N+]([O-])c1ccc(CS(=O)(=O)c2ccccc2)o1
dose: 50.0 mg/kg/injection, schedule: Q01DX009 (ip), vehicle: suspension in saline
  T/C: 103 % of control
dose: 100.0 mg/kg/injection, schedule: Q01DX009 (ip), vehicle: suspension in saline
  T/C: 100 % of control
dose: 200.0 mg/kg/injection, schedule: Q01DX009 (ip), vehicle: suspension in saline
  T/C: 105 % of control

## CC(C)n1nnc2c3ccccc3c3ccccc3c21
[2]
  T/C: 109 % of control
[3]
  T/C: 102 % of control
[8]
  T/C: 105 % of control

## CC1(C)N=C(N/N=C/c2ccccc2)SP1(=O)NNc1ncccn1 (stereo not given)
[9]
  T/C: 101 % of control
[10]
  T/C: 103 % of control

## CN(C)c1ccc(C(=O)C(O)c2ccccc2Cl)cc1 (stereo not given)
[11]
  T/C: 104 % of control
[12]
  T/C: 96 % of control
[1]
  T/C: 96 % of control
[13]
  T/C: 98 % of control

## CNc1ccc(Cl)cc1SSc1cc(Cl)ccc1NC
dose: 50.0 mg/kg/injection, schedule: Q01DX001 (ip), vehicle: Klucel (hydroxypropylcellulose) (HPC)
  T/C: 100 % of control
dose: 100.0 mg/kg/injection, schedule: Q01DX001 (ip), vehicle: Klucel (hydroxypropylcellulose) (HPC)
  T/C: 100 % of control
dose: 200.0 mg/kg/injection, schedule: Q01DX001 (ip), vehicle: Klucel (hydroxypropylcellulose) (HPC)
  T/C: 100 % of control

## NC(N)=NCC(N)C(=O)O (stereo not given)
[14]
  T/C: 101 % of control
[15]
  T/C: 104 % of control
dose: 200.0 mg/kg/injection, schedule: Q01DX005 (ip), vehicle: Klucel (hydroxypropylcellulose) (HPC)
  T/C: 104 % of control

## C(=N\Nc1nnc2c3cccnc3c3ccccc3c2n1)/c1ccc2c(c1)OCO2
dose: 100.0 mg/kg/injection, schedule: Q01DX001 (ip), vehicle: saline with Tween-80
  T/C: 108 % of control
dose: 200.0 mg/kg/injection, schedule: Q01DX001 (ip), vehicle: saline with Tween-80
  T/C: 104 % of control

## O=C(/C=C/c1ccc(OCc2ccccc2)cc1)c1cccc(Cl)c1
[16]
  T/C: 95 % of control
[17]
  T/C: 95 % of control
[11]
  T/C: 93 % of control

## c1ccc2c(c1)CCc1ccccc1C2NC1=NCCSC1
[12]
  T/C: 86 % of control
[1]
  T/C: 93 % of control

## CC1(C)C/C(=C2\COC(=O)C2=O)NN1c1ccccc1
[12]
  T/C: 106 % of control
[1]
  T/C: 99 % of control
[13]
  T/C: 105 % of control

## Cc1onc(-c2c(Cl)cccc2Cl)c1C(=O)Nc1ccc(Cl)c(Cl)c1Cl
[9]
  T/C: 96 % of control
[10]
  T/C: 93 % of control
dose: 240.0 mg/kg/injection, schedule: Q01DX005 (ip), vehicle: Klucel (hydroxypropylcellulose) (HPC)
  T/C: 92 % of control

## COc1cc(NCCCCCNCC(C)(C)C)c2ncccc2c1
[5]
  T/C: 109 % of control
[6]
  T/C: 107 % of control
[18]
  T/C: 91 % of control and 93 % of control

## CCCCCCCCCC(=O)NC(CN1CCOCC1)C(=O)c1ccccc1 (stereo not given)
[19]
  T/C: 87 % of control
[20]
  T/C: 88 % of control

## COC1=NC=CC=CC1
[16]
  T/C: 103 % of control
[17]
  T/C: 111 % of control
[11]
  T/C: 107 % of control

## CCCCn1c2nc(=O)n(C)c(=O)c-2cc2ccccc21
[12]
  T/C: 110 % of control and 90 % of control
dose: 66.0 mg/kg/injection, schedule: Q01DX009 (ip), vehicle: saline with Tween-80
  T/C: 103 % of control
[1]
  T/C: 102 % of control
dose: 150.0 mg/kg/injection, schedule: Q01DX009 (ip), vehicle: saline with Tween-80
  T/C: 103 % of control
[13]
  T/C: 120 % of control and 98 % of control

## CN1COC(OC2OCN(C)CC2(C)C)C(C)(C)C1 (stereo not given)
[1]
  T/C: 160 % of control

## C(=C\c1cc2ccc(C3=NCCN3)cc2[nH]1)/c1ccc2cc(C3=NCCN3)[nH]c2c1
dose: 12.5 mg/kg/injection, schedule: Q01DX005 (ip), vehicle: Klucel (hydroxypropylcellulose) (HPC)
  T/C: 105 % of control
dose: 25.0 mg/kg/injection, schedule: Q01DX005 (ip), vehicle: Klucel (hydroxypropylcellulose) (HPC)
  T/C: 110 % of control
[14]
  T/C: 108 % of control and 110 % of control

## CCCN(CCC)C(C)C(O)c1ccc2cc(Br)c3ccccc3c2c1 (stereo not given)
[18]
  T/C: 98 % of control
[21]
  T/C: 99 % of control
[7]
  T/C: 100 % of control

## CC1(C)OS(=O)(=O)C=C1Br
dose: 100.0 mg/kg/injection, schedule: Q04DX003 (ip), vehicle: saline
  T/C: 96 % of control
[19]
  T/C: 110 % of control
[20]
  T/C: 103 % of control

## CCS(=O)(=O)C(C(O)C(O)C(O)C(C)O)S(=O)(=O)CC (stereo not given)
dose: 50.0 mg/kg/injection, schedule: Q01DX009 (ip), vehicle: saline
  T/C: 100 % of control
dose: 100.0 mg/kg/injection, schedule: Q01DX009 (ip), vehicle: saline
  T/C: 100 % of control
dose: 200.0 mg/kg/injection, schedule: Q01DX009 (ip), vehicle: saline
  T/C: 96 % of control

## CCCCCC1C(=O)CNC1(C(=O)OCC)C(=O)OCC (stereo not given)
dose: 12.5 mg/kg/injection, schedule: Q01DX009 (ip), vehicle: Klucel (hydroxypropylcellulose) (HPC)
  T/C: 104 % of control
dose: 25.0 mg/kg/injection, schedule: Q01DX009 (ip), vehicle: Klucel (hydroxypropylcellulose) (HPC)
  T/C: 108 % of control
dose: 50.0 mg/kg/injection, schedule: Q01DX009 (ip), vehicle: Klucel (hydroxypropylcellulose) (HPC)
  T/C: 104 % of control
dose: 100.0 mg/kg/injection, schedule: Q01DX009 (ip), vehicle: Klucel (hydroxypropylcellulose) (HPC)
  T/C: 88 % of control
dose: 200.0 mg/kg/injection, schedule: Q01DX009 (ip), vehicle: Klucel (hydroxypropylcellulose) (HPC)
  T/C: 89 % of control

## CC1(C)CC(=O)C(C(c2cccc(O)c2O)C2C(=O)CC(C)(C)CC2=O)C(=O)C1
[17]
  T/C: 100 % of control and 96 % of control
[11]
  T/C: 92 % of control
[12]
  T/C: 93 % of control and 96 % of control
[1]
  T/C: 92 % of control and 94 % of control

## c1ccc2c(c1)Nc1ccccc1C1CC21 (stereo not given)
[12]
  T/C: 96 % of control
[1]
  T/C: 99 % of control
[13]
  T/C: 92 % of control

## O=C1C[C@]2(CC3CO3)C[C@@H](C=CC23OCCO3)O1 (stereo not given in full)
dose: 1.5 mg/kg/injection, schedule: Q01DX005 (ip), vehicle: acid diluted with saline
  T/C: 99 % of control
dose: 3.0 mg/kg/injection, schedule: Q01DX005 (ip), vehicle: acid diluted with saline
  T/C: 102 % of control
dose: 6.0 mg/kg/injection, schedule: Q01DX005 (ip), vehicle: acid diluted with saline
  T/C: 102 % of control
dose: 12.0 mg/kg/injection, schedule: Q01DX005 (ip), vehicle: acid diluted with saline
  T/C: 107 % of control

## O=C(NN1C(=O)CSC1c1ccc(F)cc1)c1ccncc1 (stereo not given)
[2]
  T/C: 99 % of control
[3]
  T/C: 100 % of control
[8]
  T/C: 92 % of control

## O=C1C=CC(=Nc2cc3c(cc2Br)-c2ccccc2C3=O)O1
dose: 3.12 mg/kg/injection, schedule: Q01DX005 (ip), vehicle: saline with Tween-80
  T/C: 100 % of control and 98 % of control
[4]
  T/C: 100 % of control and 104 % of control
[5]
  T/C: 104 % of control and 105 % of control
[6]
  T/C: 104 % of control and 106 % of control and 117 % of control
[18]
  T/C: 103 % of control and 105 % of control
[21]
  T/C: 104 % of control

## Nc1nc(N)nc(-c2cccc(Cl)c2)n1
[2]
  T/C: 100 % of control
[3]
  T/C: 98 % of control
[8]
  T/C: 100 % of control

## CCCCNC(=O)Nc1cccc2c(O)cccc12
dose: 6.25 mg/kg/injection, schedule: Q01DX009 (ip), vehicle: DMSO
  T/C: 94 % of control
dose: 12.5 mg/kg/injection, schedule: Q01DX009 (ip), vehicle: DMSO
  T/C: 87 % of control
dose: 25.0 mg/kg/injection, schedule: Q01DX009 (ip), vehicle: DMSO
  T/C: 87 % of control

## Cc1nc(Nc2ccccc2C)c2ccsc2n1
[14]
  T/C: 91 % of control
[15]
  T/C: 87 % of control

## CN(C)C(=O)c1cccc(COc2ccc([N+](=O)[O-])cc2Cl)c1
[12]
  T/C: 110 % of control
[1]
  T/C: 110 % of control

From PubChem BioAssay AID330 (DTP/NCI, 2004)
